{
  "source": "patent US20240415944A1",
  "about": "“Aqueous aprotinin-containing antiviral pharmaceutical composition” (priority 2021, published 2024)",
  "origin": "cited, not measured here",
  "key": {"influenza": {"system": "influenza", "details": "adult influenza patients"}, "[1]": {"details": "clinical trials of acute uncomplicated influenza"}, "kallikrein": {"system": "kallikrein", "details": "manufacturer data"}, "[2]": {"details": "kallikrein inactivating units per mg"}},
  "note": "Where two headings read alike, the source gives them in different places.",
  "data": [
    {"molecule": "CCOC(=O)C1=C[C@@H](OC(CC)CC)[C@H](NC(C)=O)[C@@H](N)C1", "note": "[Oseltamivir, oseltamivir]", "values": [
      {"measurement": "mean time to relief of clinical symptoms", "setting": "influenza", "result": 97.5, "unit": "h"},
      {"measurement": "risk of nausea (RR)", "setting": "influenza", "result": 1.60},
      {"measurement": "risk of vomiting (RR)", "setting": "influenza", "result": 2.43},
      {"measurement": "acceleration of time to relief of clinical symptoms", "setting": "influenza; versus placebo", "result": "17.8 to 25.2", "unit": "h"}
    ]},
    {"molecule": "COC(=O)OCOc1c2n(ccc1=O)N([C@@H]1c3ccccc3SCc3c1ccc(F)c3F)[C@@H]1COCCN1C2=O", "note": "[baloxavir, baloxavir marboxil]", "values": [
      {"measurement": "adverse reaction: bronchitis", "setting": "[1]", "result": 3, "unit": "%"},
      {"measurement": "adverse reaction: diarrhea", "setting": "[1]", "result": 3, "unit": "%"},
      {"measurement": "adverse reaction: headache", "setting": "[1]", "result": 1, "unit": "%"},
      {"measurement": "adverse reaction: nausea", "setting": "[1]", "result": 2, "unit": "%"},
      {"measurement": "adverse reaction: sinusitis", "setting": "[1]", "result": 2, "unit": "%"}
    ]},
    {"molecule": "aprotinin [aprotinin produced by Sigma-Aldrich (USA)]", "values": [
      {"measurement": "aprotinin activity", "setting": "kallikrein; [2]", "result": 6500, "unit": "KIU/mg"}
    ]},
    {"molecule": "aprotinin [aprotinin produced by Wanhua Biochem (China) No. NATE-1892]", "values": [
      {"measurement": "aprotinin activity", "setting": "kallikrein; [2]", "result": "> 5400", "unit": "KIU/mg"},
      {"measurement": "aprotinin activity", "setting": "kallikrein", "result": "> 3.0", "unit": "EPU/mg"}
    ]}
  ]
}
